In patent US8247211B2, “Glycopeptide antibiotics” (American Cyanamid Company, priority 2001, dated 2012):
≈ marks a conversion by molar mass, not a printed value. Numbered stars: 1 amine (or outer) side, 2 acyl side, 3 side chain; on linkers, the order of the positions; unused ones are H or OH. Square brackets hold non-standard residues; d marks the D form. Peptide text beside a SMILES is read from it. ξ: configuration not given here. X1 = N=C1NCC(C(O)C(N[*:1])C(=O)[*:2])N1C1OC(CO)C(O)C(O)C1O; X6 = N=C1NCC(CC(N[*:1])C(=O)[*:2])N1C1OC(CO)C(O)C(O)C1O; ξEnduracididine(βξ-OH,4'ξ) = N=C1NCC(C(O)C(N)C(=O)O)N1; Tyr(3-NO2) = N[CH](Cc1ccc(O)c([N+](=O)[O-])c1)C(=O)O; Tyr(3,5-Br2) = N[CH](Cc1cc(Br)c(O)c(Br)c1)C(=O)O; X7 = N=C1NCC(CC(N[*:1])C(=O)[*:2])N1; ξPhe(βξ-Me) = CC(c1ccccc1)C(N)C(=O)O

Legend:
Test in all cases: In vitro antibacterial evaluation: minimum inhibitory concentration (MIC), broth dilution method
Type in all cases: cell-based
Escherichia coli [1] = conditions: broth dilution, 18 hours at 35° C.
Streptococcus sp. = conditions: 18 hours at 35° C.
Summary of the method: (§1)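 Values are minimum inhibitory concentrations, meaning the smallest antibiotic concentration that stops growth of the organism. They come from broth dilution in Muller-Hinton II […] per NCCLS guidance (M7-A2), using 5×10^5 CFU/mL and concentrations from 64 to 0.06 μg/mL.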

Enterococcus sp. = conditions: 18 hours at 35° C.
Summary of the method: as §1

Staphylococcus sp. = conditions: 18 hours at 35° C.
Summary of the method: as §1

Escherichia coli [2] = conditions: 18 hours at 35° C.
Summary of the method: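 An MIC is reported for each organism as the least concentration giving inhibition, using broth dilution over 64-0.06 μg/mL with a 5×10^5 CFU/mL inoculum.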

CC(c1ccccc1)C1NC(=O)CNC(=O)C(CO)NC(=O)C(C(O)C2CNC(=N)N2C2OC(CO)C(O)C(O)C2O)NC(=O)C(C(O)C2CNC(=N)N2)NC(=O)C(Cc2cc(Br)c(O)c(Br)c2)NC1=O (stereo not drawn) [Example 3, Cyclo[glycyl-β-methylphenylalanyl-3,5-dibromotyrosyl-3-(2-iminoimidazolidin-4-yl)seryl-3-(3-hexopyranosyl-2-iminoimidazolidin-4-yl)serylseryl]] (cyclo(G[ξPhe(βξ-Me)][Tyr(3,5-Br2)][ξEnduracididine(βξ-OH,4'ξ)][X1]S); configuration not given here)
MIC Escherichia coli (GC 4560) (Escherichia coli [1]): 64 µg/mL (≈ 56.7 µM)

CC(c1ccccc1)C1NC(=O)CNC(=O)C(CO)NC(=O)C(CC2CNC(=N)N2C2OC(CO)C(O)C(O)C2O)NC(=O)C(CC2CNC(=N)N2)NC(=O)C(Cc2ccc(O)c([N+](=O)[O-])c2)NC1=O (stereo not drawn) [Example 10, Cyclo[3-(2-iminoimidazolidin-4-yl)alanyl-3-(3-hexopyranosyl-2-iminoimidazolidin-4-yl)-alanylserylglycyl-β-methylphenylalanyl-3-nitrotyrosyl]] (cyclo(G[ξPhe(βξ-Me)][Tyr(3-NO2)][X7][X6]S); configuration not given here)
MIC Streptococcus agalactiae (GC 4564) (Streptococcus sp.; broth dilution): >64 µg/mL
MIC Streptococcus pneumoniae (ATCC 6301) (Streptococcus sp.; broth dilution): >64 µg/mL
MIC Streptococcus pneumoniae (GC 1894) (Streptococcus sp.; broth dilution): >64 µg/mL
MIC Streptococcus pneumoniae (GC 4565) (Streptococcus sp.; broth dilution): >64 µg/mL
MIC Streptococcus pyogenes (GC 4563) (Streptococcus sp.; broth dilution): >64 µg/mL
MIC Enterococcus avium (GC 4558) (Enterococcus sp.; broth dilution): >64 µg/mL
MIC Enterococcus faecalis (ATCC 29212) (Enterococcus sp.; broth dilution): >64 µg/mL
MIC Enterococcus faecalis (GC 2242) (Enterococcus sp.; broth dilution): >64 µg/mL
MIC Enterococcus faecalis (GC 2691) (Enterococcus sp.; broth dilution): >64 µg/mL
MIC Enterococcus faecalis (GC 3059) (Enterococcus sp.; broth dilution): >64 µg/mL
MIC Enterococcus faecalis (GC 4552) (Enterococcus sp.; broth dilution): >64 µg/mL
MIC Enterococcus faecalis (GC 4553) (Enterococcus sp.; broth dilution): >64 µg/mL
MIC Enterococcus faecalis (GC 4554) (Enterococcus sp.; broth dilution): >64 µg/mL
MIC Enterococcus faecalis (GC 6189) (Enterococcus sp.; broth dilution): >64 µg/mL
MIC Enterococcus faecium (GC 2243) (Enterococcus sp.; broth dilution): >64 µg/mL
MIC Enterococcus faecium (GC 4556) (Enterococcus sp.; broth dilution): >64 µg/mL
MIC Enterococcus faecium (GC 4557) (Enterococcus sp.; broth dilution): >64 µg/mL
MIC Escherichia coli (ATCC 25922) (Escherichia coli [1]): >64 µg/mL
MIC Escherichia coli (GC 4559) (Escherichia coli [1]): >64 µg/mL
MIC Escherichia coli (GC 4560) (Escherichia coli [1]): >64 µg/mL

CC(c1ccccc1)C1NC(=O)CNC(=O)C(CO)NC(=O)C(C(O)C2CNC(=N)N2C2OC(CO)C(O)C(O)C2O)NC(=O)C(C(O)C2CNC(=N)N2)NC(=O)C(Cc2ccc3oc(-c4ccccc4OC4OC(CO)C(O)C(O)C4O)nc3c2)NC1=O (stereo not drawn) [Example 36]
MIC Coagulase Negative Staphylococcus (GC 4547) (Staphylococcus sp.; broth dilution): 64 µg/mL (≈ 51.2 µM)
MIC Coagulase Negative Staphylococcus (GC 4549) (Staphylococcus sp.; broth dilution): 64 µg/mL (≈ 51.2 µM)
MIC Coagulase Negative Staphylococcus (GC 6257) (Staphylococcus sp.; broth dilution): 64 µg/mL (≈ 51.2 µM)
MIC Staphylococcus haemolyticus (GC 4546) (Staphylococcus sp.; broth dilution): 64 µg/mL (≈ 51.2 µM)
MIC Escherichia coli (GC 4560) (Escherichia coli [1]): 64 µg/mL (≈ 51.2 µM)

γ-O-[(Heptylamino)carbonyl]-cyclo[glycyl-β-methylphenylalanyl-O-(4-O-hexopyranosylhexopyranosyl)tyrosyl-3-(2-iminoimidazolidin-4-yl)seryl-3-(3-hexopyranosyl-2-iminoimidazolidin-4-yl)serylseryl] [Example 253b]
MIC Streptococcus agalactiae (GC 4564) (Streptococcus sp.; Streptococcus agalactiae (GC 4564)): 1 µg/mL
MIC Streptococcus pneumoniae (ATCC 6301) (Streptococcus sp.; Streptococcus pneumoniae (ATCC 6301)): 0.25 µg/mL
MIC Streptococcus pneumoniae (GC 1894) (Streptococcus sp.; Streptococcus pneumoniae (GC 1894)): <0.06 µg/mL
MIC Streptococcus pneumoniae (GC 4565) (Streptococcus sp.; Streptococcus pneumoniae (GC 4565)): 0.25 µg/mL
MIC Streptococcus pyogenes (GC 4563) (Streptococcus sp.; Streptococcus pyogenes (GC 4563)): 1 µg/mL
MIC Streptococcus pneumoniae (ATCC 6301) (Streptococcus sp.; broth dilution, strain ATCC 6301): 0.25 µg/mL
MIC Streptococcus pneumoniae (GC 1894) (Streptococcus sp.; broth dilution, strain GC 1894): <0.06 µg/mL
MIC Streptococcus pyogenes (GC 4563) (Streptococcus sp.; broth dilution, strain GC 4563): 1 µg/mL
MIC Streptococcus agalactiae (GC 4564) (Streptococcus sp.; broth dilution, strain GC 4564): 1 µg/mL
MIC Streptococcus pneumoniae (GC 4565) (Streptococcus sp.; broth dilution, strain GC 4565): 0.25 µg/mL
MIC Coagulase Negative Staphylococcus (GC 4547) (Staphylococcus sp.; Coagulase Negative Staphylococcus (GC 4547)): 4 µg/mL
MIC Coagulase Negative Staphylococcus (GC 4548) (Staphylococcus sp.; Coagulase Negative Staphylococcus (GC 4548)): 2 µg/mL
MIC Coagulase Negative Staphylococcus (GC 4549) (Staphylococcus sp.; Coagulase Negative Staphylococcus (GC 4549)): 2 µg/mL
MIC Coagulase Negative Staphylococcus (GC 4551) (Staphylococcus sp.; Coagulase Negative Staphylococcus (GC 4551)): 4 µg/mL
MIC Coagulase Negative Staphylococcus (GC 6257) (Staphylococcus sp.; Coagulase Negative Staphylococcus (GC 6257)): 2 µg/mL
MIC Staphylococcus aureus (ATCC 29213) (Staphylococcus sp.; Staphylococcus aureus (ATCC 29213)): 4 µg/mL
MIC Staphylococcus aureus (GC 1131) (Staphylococcus sp.; Staphylococcus aureus (GC 1131)): 4 µg/mL
MIC Staphylococcus aureus (GC 3051) (Staphylococcus sp.; Staphylococcus aureus (GC 3051)): 2 µg/mL
MIC Staphylococcus aureus (GC 3053) (Staphylococcus sp.; Staphylococcus aureus (GC 3053)): 8 µg/mL
MIC Staphylococcus aureus (GC 4541) (Staphylococcus sp.; Staphylococcus aureus (GC 4541)): 2 µg/mL
MIC Staphylococcus aureus (GC 4542) (Staphylococcus sp.; Staphylococcus aureus (GC 4542)): 4 µg/mL
MIC Staphylococcus aureus (GC 4544) (Staphylococcus sp.; Staphylococcus aureus (GC 4544)): 4 µg/mL
MIC Staphylococcus aureus (GC 4545) (Staphylococcus sp.; Staphylococcus aureus (GC 4545)): 2 µg/mL
MIC Staphylococcus aureus-SMITH (GC 4543) (Staphylococcus sp.; Staphylococcus aureus-SMITH (GC 4543)): 2 µg/mL
MIC Staphylococcus haemolyticus (GC 4546) (Staphylococcus sp.; Staphylococcus haemolyticus (GC 4546)): 2 µg/mL
MIC Staphylococcus aureus (ATCC 29213) (Staphylococcus sp.; broth dilution, strain ATCC 29213): 4 µg/mL
MIC Staphylococcus aureus (GC 1131) (Staphylococcus sp.; broth dilution, strain GC 1131): 4 µg/mL
MIC Staphylococcus aureus (GC 3051) (Staphylococcus sp.; broth dilution, strain GC 3051): 2 µg/mL
MIC Staphylococcus aureus (GC 3053) (Staphylococcus sp.; broth dilution, strain GC 3053): 8 µg/mL
MIC Staphylococcus aureus (GC 4541) (Staphylococcus sp.; broth dilution, strain GC 4541): 2 µg/mL
MIC Staphylococcus aureus (GC 4542) (Staphylococcus sp.; broth dilution, strain GC 4542): 4 µg/mL
MIC Staphylococcus aureus-SMITH (GC 4543) (Staphylococcus sp.; broth dilution, strain GC 4543): 2 µg/mL
MIC Staphylococcus aureus (GC 4544) (Staphylococcus sp.; broth dilution, strain GC 4544): 4 µg/mL
MIC Staphylococcus aureus (GC 4545) (Staphylococcus sp.; broth dilution, strain GC 4545): 2 µg/mL
MIC Staphylococcus haemolyticus (GC 4546) (Staphylococcus sp.; broth dilution, strain GC 4546): 2 µg/mL
MIC Coagulase Negative Staphylococcus (GC 4547) (Staphylococcus sp.; broth dilution, strain GC 4547): 4 µg/mL
MIC Coagulase Negative Staphylococcus (GC 4548) (Staphylococcus sp.; broth dilution, strain GC 4548): 2 µg/mL
MIC Coagulase Negative Staphylococcus (GC 4549) (Staphylococcus sp.; broth dilution, strain GC 4549): 2 µg/mL
MIC Coagulase Negative Staphylococcus (GC 4551) (Staphylococcus sp.; broth dilution, strain GC 4551): 4 µg/mL
MIC Coagulase Negative Staphylococcus (GC 6257) (Staphylococcus sp.; broth dilution, strain GC 6257): 2 µg/mL
MIC Enterococcus avium (GC 4558) (Enterococcus sp.; Enterococcus avium (GC 4558)): 8 µg/mL
MIC Enterococcus faecalis (ATCC 29212) (Enterococcus sp.; Enterococcus faecalis (ATCC 29212)): 8 µg/mL
MIC Enterococcus faecalis (GC 2242) (Enterococcus sp.; Enterococcus faecalis (GC 2242)): 8 µg/mL
MIC Enterococcus faecalis (GC 2691) (Enterococcus sp.; Enterococcus faecalis (GC 2691)): 8 µg/mL
MIC Enterococcus faecalis (GC 3059) (Enterococcus sp.; Enterococcus faecalis (GC 3059)): 16 µg/mL
MIC Enterococcus faecalis (GC 4552) (Enterococcus sp.; Enterococcus faecalis (GC 4552)): 8 µg/mL
MIC Enterococcus faecalis (GC 4553) (Enterococcus sp.; Enterococcus faecalis (GC 4553)): 8 µg/mL
MIC Enterococcus faecalis (GC 4554) (Enterococcus sp.; Enterococcus faecalis (GC 4554)): 8 µg/mL
MIC Enterococcus faecalis (GC 6189) (Enterococcus sp.; Enterococcus faecalis (GC 6189)): 8 µg/mL
MIC Enterococcus faecium (GC 2243) (Enterococcus sp.; Enterococcus faecium (GC 2243)): 8 µg/mL
MIC Enterococcus faecium (GC 4556) (Enterococcus sp.; Enterococcus faecium (GC 4556)): 8 µg/mL
MIC Enterococcus faecium (GC 4557) (Enterococcus sp.; Enterococcus faecium (GC 4557)): 4 µg/mL
MIC Enterococcus faecalis (ATCC 29212) (Enterococcus sp.; broth dilution, strain ATCC 29212): 8 µg/mL
MIC Enterococcus faecalis (GC 2242) (Enterococcus sp.; broth dilution, strain GC 2242): 8 µg/mL
MIC Enterococcus faecium (GC 2243) (Enterococcus sp.; broth dilution, strain GC 2243): 8 µg/mL
MIC Enterococcus faecalis (GC 2691) (Enterococcus sp.; broth dilution, strain GC 2691): 8 µg/mL
MIC Enterococcus faecalis (GC 3059) (Enterococcus sp.; broth dilution, strain GC 3059): 16 µg/mL
MIC Enterococcus faecalis (GC 4552) (Enterococcus sp.; broth dilution, strain GC 4552): 8 µg/mL
MIC Enterococcus faecalis (GC 4553) (Enterococcus sp.; broth dilution, strain GC 4553): 8 µg/mL
MIC Enterococcus faecalis (GC 4554) (Enterococcus sp.; broth dilution, strain GC 4554): 8 µg/mL
MIC Enterococcus faecium (GC 4556) (Enterococcus sp.; broth dilution, strain GC 4556): 8 µg/mL
MIC Enterococcus faecium (GC 4557) (Enterococcus sp.; broth dilution, strain GC 4557): 4 µg/mL
MIC Enterococcus avium (GC 4558) (Enterococcus sp.; broth dilution, strain GC 4558): 8 µg/mL
MIC Enterococcus faecalis (GC 6189) (Enterococcus sp.; broth dilution, strain GC 6189): 8 µg/mL
MIC Escherichia coli (ATCC 25922) (Escherichia coli [2]; Escherichia coli (ATCC 25922)): 64 µg/mL
MIC Escherichia coli (GC 4559) (Escherichia coli [2]; Escherichia coli (GC 4559)): 64 µg/mL
MIC Escherichia coli (GC 4560) (Escherichia coli [2]; Escherichia coli (GC 4560)): 2 µg/mL
